From patent publication US9974760B2, “Compositions and methods for treating cancer” (Chemo-Enhanced LLC, priority 2011, dated 2018)
Entries after “also recorded” stand apart in the source; their conditions may differ.

Columns and labels:
[1] = test system: cancer cells; assay: Taxol induced cancer cell death with pathway inhibitors/activators (FIGS. 4A-4D); format: cell-based; conditions: added to Taxol
Source text: The molecular mechanism involved in C6-ceramide induced chemosensitization effects was examined by focusing on taxol.
To further confirm the requirement of AMPK activation in this synergistic effect, siRNA directed against AMPK can be used.

[2] = test system: L3.6 pancreatic cancer cells; assay: Cell viability / cell death (MTT) in L3.6 pancreatic cancer cells; format: cell-based, human; conditions: LY 1 μM, rapamycin 100 nM, U0126 1 μg/ml; 48 hours
Protocol: L3.6 pancreatic cancer cells, cultured either in the basic DMEM medium or with 10% FBS, were treated with the indicated doses of taxol in the presence or absence of C6-ceramide (10 μg/ml) for 48 hours and cell viability was detected by MTT assay (FIGS. 1A-1B). L3.6 cells, cultured either in basic DMEM medium or with 10% FBS, were treated with the indicated dose of C6-ceramide in the presence or absence of taxol (1.5 μg/ml) for 48 hours and cell viability was detected by MTT assay (FIGS. 1C-1D). Mitomycin C (10 μg/ml) was always present in the media to prevent cell proliferation from occurring. The data represents the mean±SD of at least triplicate experiments. *P<0.05 versus group without C6-ceramide presents (FIGS. 1A-1B). **P<0.05 versus group without taxol presents (FIGS. 1C-1D).
(§1) FIGS. 3A-3H show synergistic anti-tumor effects of C6-ceramide and gemcitabine in vivo and in vitro. SCID/Beige/Taconic nude male mice (22-25 g; 6-8 weeks old) were ear tagged and randomized into 4 different groups (Control, Ceramide, gemcitabine, Ceramide+gemcitabine) combining 5 mice each prior to inoculation subcutaneous (s.c.) with 2×10^6 L3.6 cells in a 0.1 ml volume into the internal surface of the right thigh. Treatment was started 4 days after L3.6 cell injection with thrice weekly (3×/wk) intraperitoneal (i.p.) injections of gemcitabine (two doses: 5.0 and 10.0 mg/ml) with or without C6-ceramide (10 mg/ml) for 2 weeks. Mouse survival (FIGS. 3A, 3B, and 3E) and tumor volume (in cm^3; FIGS. 3C and 3D) were recorded (FIG. 3E). Pancreatic cancer cell lines, including L3.6 cells (FIG. 3F), Panc-1 cells (FIG. 3G) and MIA-PaCa2 cells (MIA, FIG. 3H) were cultured in basic DMEM medium and were treated with gemcitabine (Gem, 1 μg/ml). Mitomycin C was always present in the media to prevent cell proliferation from occurring. The data represent the mean±SD of at least triplicate experiments. *P<0.05 versus group without C6-ceramide presents. The experiments were repeated at least three times and similar results were observed.
(§2) Pancreatic cancer cell lines L3.6 cells were left untreated or treated with gemcitabine (Gem, 1 μg/ml) or taxol (1.5 μg/ml) in the presence or absence of C6-ceramide (10 μg/ml) for 2, 4 and 6 hours, AKT/mTORC1 and ERK activation were detected by Western Blot using indicated antibodies (FIGS. 5A and 5C). p-AKT (S473) and p-ERK at 4 hour time intervals for each treatment quantified (FIGS. 5B and 5D). L3.6 cells were pretreated with various inhibitors including PI3K/AKT inhibitor LY 294002 (LY, 1 μM), mTORC1 inhibitor rapamycin (100 nM), MEK/ERK inhibitor U0126 (1 μg/ml) or gemcitabine (1 μg/ml) for 48 hours, cell death was detected 48 hours later (FIG. 5E). The effects of the various inhibitors described above on AKT/mTORC1 and ERK activation were also detected by Western Blots using commercial available antibodies (FIG. 5F). *P<0.05 versus group without C6-ceramide presents. The experiments were repeated at least three times and similar results were observed.
Cell viability was measured by the 3-[4m5-dimethylthylthiazol-2-y]-2.5 diphenyltetrazolium bromide (MTT) method, as described in Cao et al. (2009) Sci. Signal, 2:RA17. Briefly, the cells were collected and seeded in 96-well plate at a density of 2×10^5 cells/cm^2. Different seeding densities were optimized at the beginning of the experiments. After overnight incubation cells were exposed to fresh medium containing indicated reagents at 37° C. After incubation for different time periods, 20 ul of MTT tetrazolium (Sigma, St. Louis, Mo.) salt dissolved in Hank's balanced solution at a concentration of 5 mg/ml was added to each well and incubated in a CO2 incubator for an additional 4 hours. The medium was subsequently aspirated from each well and 150 ul of DMSO (Sigma, St. Louis, Mo.) was added to dissolve formazan crystals and the absorbance of each well was obtained using a Dynatech MR5000 plate reader at a test wavelength of 490 nm with a reference wavelength of 630 nm. […]

[3] = test system: ERK; assay: Western Blot of ERK activation in L3.6 cells; format: cell-based
Protocol: as §2, with “5E).” for “5E). The effects of the various inhibitors described above on AKT/mTORC1 and ERK activation were also detected by Western Blots using commercial available antibodies (FIG. 5F). *P<0.05 versus group without C6-ceramide presents. The experiments were repeated at least three times and similar results were observed.”
(§3) As described in Cao et al. (2009) Sci. Signal, 2:RA17, aliquots of 30-40 μg of protein from each sample (treated as indicated in the legends) were separated by 10% SDS-polyacrylamide gel electrophoresis (SDS-PAGE) and transferred onto a polyvinylidene difluoride (PVDF) membrane (Millipore, Bedford, Mass.). After blocking with 10% instant nonfat dry milk for 1 hour, membranes were incubated with specific antibodies overnight at 4° C. followed by incubation with secondary antibodies (HRP-conjugated anti-rabbit or anti-mouse IgG at the appropriate dilutions) for 60 minutes to 1 hour at room temperature. Antibody binding was detected with the enhanced chemiluminescence (ECL) detection system (Amersham Biosciences, Piscataway, N.J.).

[4] = test system: MIA-PaCa2 cells; assay: Cell death in MIA-PaCa2 pancreatic cancer cells; format: cell-based; conditions: MIA cells; gemcitabine 1.5 μg/ml
Protocol: as §1, with “Pancreatic cancer cell lines, including L3.6 cells (FIG. 3F), Panc-1 cells (FIG. 3G) and MIA-PaCa2 cells (MIA, FIG. 3H) were cultured in basic DMEM medium and were treated with gemcitabine (Gem, 1 μg/ml).” left out
(§4) Cell viability was measured by the 3-[4m5-dimethylthylthiazol-2-y]-2.5 diphenyltetrazolium bromide (MTT) method, as described in Cao et al. (2009) Sci. Signal, 2:RA17. Briefly, the cells were collected and seeded in 96-well plate at a density of 2×10^5 cells/cm^2. Different seeding densities were optimized at the beginning of the experiments. […] The medium was subsequently aspirated from each well and 150 ul of DMSO (Sigma, St. Louis, Mo.) was added to dissolve formazan crystals and the absorbance of each well was obtained using a Dynatech MR5000 plate reader at a test wavelength of 490 nm with a reference wavelength of 630 nm.
(§5) The possible combination effect of C6-ceramide on gemcitabine-induced cytotoxicity (in vitro) and regression (in vivo) of the L3.6 pancreatic cancer cell was also tested according to the methods described in Examples 2 and 3. […] A synergistic anti-tumor effect of gemcitabine and C6-ceramide in multiple pancreatic cancer cells in vitro was also determined.

[5] = test system: Panc-1 cells; assay: Cell death in Panc-1 pancreatic cancer cells; format: cell-based; conditions: Panc-1; gemcitabine 1.5 μg/ml
Protocol: as §1, with “Pancreatic cancer cell lines, including L3.6 cells (FIG. 3F), Panc-1 cells (FIG. 3G) and MIA-PaCa2 cells (MIA, FIG. 3H) were cultured in basic DMEM medium and were treated with gemcitabine (Gem, 1 μg/ml).” left out
as §4, §5

[6] = test system: AKT/mTORC1; assay: Western Blot of AKT/mTORC1 activation in L3.6 cells; format: cell-based
Protocol: as §2, with “5E).” for “5E). The effects of the various inhibitors described above on AKT/mTORC1 and ERK activation were also detected by Western Blots using commercial available antibodies (FIG. 5F). *P<0.05 versus group without C6-ceramide presents. The experiments were repeated at least three times and similar results were observed.”
as §3

[7] = test system: L3.6 pancreatic cells; format: in vivo
Protocol: Treatment was started 4 days after L3.6 cell injection with thrice weekly (3×/wk) intraperitoneal (i.p.) injections of paclitaxel 3.0 mg/ml with or without C6-ceramide (10 mg/ml) for 2 weeks. Mouse survival (FIGS. 2A and 2C), tumor volume (in cm^3; FIG. 2B), mouse body weight (in grams) were recorded (FIG. 2E). The average rate of tumor development was calculated by total tumor volume dividing by total number of days monitored (FIG. 2C).
as §1, with “SCID/Beige/Taconic” for “FIGS. 3A-3H show synergistic anti-tumor effects of C6-ceramide and gemcitabine in vivo and in vitro. SCID/Beige/Taconic”, “occurring.” for “occurring. The data represent the mean±SD of at least triplicate experiments. *P<0.05 versus group without C6-ceramide presents. The experiments were repeated at least three times and similar results were observed.”
SCID/Beige/Taconic male mice were inoculated with 2×10^6 L3.6 pancreatic cells and treated […] 4 days post tumor implant with thrice weekly (3×/wk) intraperitoneal (I.P.) injections of paclitaxel (taxol) 3.0 mg/ml or gemcitabine (Gem) 10 mg/ml after treatment and were autopsied when near death (as per IRB committee). Mouse survival, tumor volume (in cm^3), and body weight (in grams) were recorded. Average rate of tumor development was calculated by dividing total tumor volume by total number of days monitored.
The possible combination effect of C6-ceramide on gemcitabine-induced cytotoxicity (in vitro) and regression (in vivo) of the L3.6 pancreatic cancer cell was also tested according to the methods described in Examples 2 and 3.

[8] = test system: L3.6 pancreatic cancer cells; assay: Cell viability / cell death (MTT) in L3.6 pancreatic cancer cells; format: cell-based, human; conditions: gemcitabine 1.5 μg/ml

c1cc(-c2cnn3cc(-c4ccc(OCCN5CCCCC5)cc4)cnc23)ccn1 [Compound C]
effect on Taxol induced cancer cell death [1]: inhibits

N#CC(=C(N)Sc1ccccc1N)C(C#N)=C(N)Sc1ccccc1N [U0126, 1,4-diamino-2,3-dicyano-1,4-bis [2-aminophenylthio]butadiene]
effect on gemcitabine induced L3.6 cell death [2]: largely enhanced; also recorded: sensitized
effect on taxol induced L3.6 cell death [2]: largely enhanced; also recorded: sensitized

NC(=O)c1ncn([C@@H]2O[C@H](CO)[C@@H](O)[C@H]2O)c1N [AICAR]
effect on Taxol induced cancer cell death [1]: enhance

Nc1ccn([C@@H]2O[C@H](CO)[C@@H](O)C2(F)F)c(=O)n1 [gemcitabine]
ERK activation / signaling ([3]; L3.6 cells, Western Blot): no effect
effect on C6-ceramide inhibition of ERK activation ([3]; added to C6-ceramide): enhanced
cancer cell death [4]: moderate effect
cancer cell death [5]: moderate effect
AKT/mTORC1 activation / signaling ([6]; L3.6 cells, Western Blot): no effect
PI3K/AKT/mTOR activation ([6]; Taxol alone): no effect
effect on C6-ceramide induced AKT de-phosphorylation or inhibition ([6]; added to C6-ceramide): dramatically enhanced
anti-tumor effect ([7]; gemcitabine 10 mg/kg): moderate anti-tumor effect
survival and tumor growth ([7]; low dose gemcitabine 5 mg/kg): limited effect
cancer cell death [8]: moderate effect

CCCCCCCCCCCCCCCCCCOC[C@H](COP(=O)(O)O[C@H]1[C@H](O)[C@@H](O)[C@H](O)C[C@H]1OC)OC [AKT inhibitor II]
effect on Taxol induced cancer cell death [1]: enhance
Taxol induced cell death in vivo ([7]; inhibitor plus taxol, pancreatic cancer model SCID mice, expected): enhance
